# Experimental data taken from patent US12257264B2, “Combination therapy for HIV with adenosine derivative and capsid inhibitors” (Brii Biosciences, Inc., priority 2021, dated 2025).
# Where “and” joins values, the source holds several entries; their conditions need not be identical. Equal values may be shown once.
# Columns and labels:
# [1] = Liver S9 stability and conversion to EFdA; assay type: in vitro ADME, human
# Procedure: Intermediate solution: Dilute 5 μL of compounds or controls (7-ethoxycoumarin) from stock solution (10 mM) with 495 μL MeOH (Conc.: 100 μM, 1% DMSO, 99% MeOH). Stop solution: Cold ACN (including 100 ng/mL Tolbutamide and Labetalol as internal standard). Add 2 μL test compound or control working solution/well to all plates (T0, T5, T10, T20, T30, T60, NCF60) except matrix blank. Add 600 μL/well stop solution (cold in 4° C., including 100 ng/mL Tolbutamide/100 ng/mL Labetalol) to terminate the TO plate, then put it on ice. Dispense 840 μL/well S9 solution to 96-well plate as reservoir according to plate map. Then add 100 μL/well to every plate by Apricot. Incubate S9 solution and compound at 37° C. for about 10 min except NCF60 and TO. After adding S9 solution and 98 μLPB buffer to NCF60, incubate at 37° C. without pre-warming, start timer 1. After 60 min, add 600 μL/well stop solution to terminate the reaction. After pre-warming, dispense 760 μL/well cofactor solution to 96-well plate as reservoir according to plate map. Then add 98 μL/well to every plate by Apricot to start reaction. Incubate at 37° C., start timer 2, Add 600 μL/well stop solution (cold in 4° C., including 100 ng/mL Tolbutamide and Labetalol) to terminate the reaction. Samples are centrifuged at 4000 rpm for 20 min. While centrifuging, load 8×new 96-well plate with 300 μL HPLC water, then transfer 100 μL supernatant, mix with water for LC/MS/MS, transferred to Bioanalytical Services for LC-MS/MS analysis. Use equation of first order kinetics to calculate t1/2 and CL: Equation of first order kinetics: […]
# [2] = system: HIV-1 NL4-3 in MT-4 cells; assay: Two-drug combination antiviral cytoprotection (CPE) assay, MacSynergy II analysis; assay type: cell-based; conditions: HIV-1 NL4-3 virus in MT4 cells
# Procedure: On the day preceding the assay, the cells were split 1:2 to assure they were in an exponential growth phase at the time of infection.
# Combination cytotoxicity was evaluated in parallel on two identical assay plates (i.e., duplicate measurements) that included cell control wells.
# [3] = Plasma exposures following oral administration to beagle dogs; conditions: for Prodrug formula 4-A Concentrations in Dog Plasma / EFdA Concentrations in Dog Plasma / concentration at 0.25 h / concentration at 0.5 h / concentration at 1 h: Prodrug formula 4-A PO 8.25 mg/kg; for concentration at 0.25 h / concentration at 0.5 h / concentration at 1 h: male, beagle, dog, in vivo, po, Prodrug formula 4-A Concentrations in Dog Plasma
smiles,measurement,setting,value
"C#C[C@]1(COC(=O)OCc2oc(=O)oc2C)O[C@@H](n2cnc3c(N)nc(F)nc32)C[C@@H]1O [Formula 4-A, ((2R,3S,5R)-5-(6-amino-2-fluoro-9H-purin-9-yl)-2-ethynyl-3-hydroxytetrahydrofuran-2-yl)methyl ((5-methyl-2-oxo-1,3-dioxol-4-yl)methyl) carbonate]",Conversion to the target drug (EFdA) in liver S9 assay,[1],converted to the target drug efficiently
same,Stability in Human Liver S9 Formation of EFdA,[1]; human liver S9,Yes
same,half-life at 1 µM,"[1]; human liver S9, 37° C.",< 50 min
same,Antiviral activity upon combination with lenacapavir,[2],synergistic antiviral activity
same,Prodrug formula 4-A Concentrations in Dog Plasma,"[3]; 0.250 hrs, individual animals, 8.25 mg/kg",1.63 ng/mL and 1.09 ng/mL
same,Prodrug formula 4-A Concentrations in Dog Plasma,"[3]; 0.500 hrs, individual animals, 8.25 mg/kg",BQL
same,Prodrug formula 4-A Concentrations in Dog Plasma,"[3]; 1.00 hrs, individual animals, 8.25 mg/kg",BQL
same,Prodrug formula 4-A Concentrations in Dog Plasma,"[3]; 2.00 hrs, individual animals",BQL
same,Prodrug formula 4-A Concentrations in Dog Plasma,"[3]; 4.00 hrs, individual animals",BQL
same,Prodrug formula 4-A Concentrations in Dog Plasma,"[3]; 6.00 hrs, individual animals",BQL
same,Prodrug formula 4-A Concentrations in Dog Plasma,"[3]; 8.00 hrs, individual animals",BQL
same,EFdA Concentrations in Dog Plasma,"[3]; 12.0 hrs, individual animals",BQL
same,Prodrug formula 4-A Concentrations in Dog Plasma,"[3]; 12.0 hrs, individual animals",BQL
same,EFdA Concentrations in Dog Plasma,"[3]; 24.0 hrs, individual animals",BQL
same,Prodrug formula 4-A Concentrations in Dog Plasma,"[3]; 24.0 hrs, individual animals",BQL
same,EFdA AUC and Cmax compared with a dose-equivalent EFdA,"[3]; dogs, oral",higher AUC and Cmax
same,Prodrug detected in the systemic circulation,"[3]; dogs, oral",minimal prodrug detected in the systemic circulation
same,concentration at 0.25 h,"[3]; 8.25 mg/kg, 0.250 hrs, Mean",1.28 ng/mL
same,concentration at 0.25 h,"[3]; 8.25 mg/kg, 0.250 hrs, individual animals",1.13 ng/mL
same,concentration at 0.5 h,"[3]; 8.25 mg/kg, 0.500 hrs, Mean",1.68 ng/mL
same,concentration at 0.5 h,"[3]; 8.25 mg/kg, 0.500 hrs, individual animals",1.68 ng/mL
same,concentration at 1 h,"[3]; 8.25 mg/kg, 1.00 hrs, Mean",1.43 ng/mL
same,concentration at 1 h,"[3]; 8.25 mg/kg, 1.00 hrs, individual animals",1.43 ng/mL
